# Assay results reported in article PMC4210147, “Sequence-Specific Dimerization of a Transmembrane Helix in Amphipol A8-35” (PLoS ONE, 2014).
# Experiments:
# human GpA TM domain = target: T1, human GpA TM domain (Homo sapiens, UniProt P02724); assay: Steady-state FRET, GpA TM helix dimer dissociation upon addition of SDS (mixed A8-35/SDS aggregates); assay type: binding
# T1 construct: purchased Peptide Specialty Laboratories, Heidelberg, Germany; host or cells: chemical synthesis (custom peptide)
# T1 sequence (P02724 88-120 limits assumed) 1: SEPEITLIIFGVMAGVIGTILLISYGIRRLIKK
# T1 sequence (P02724 88-120 limits assumed) 2: T1 sequence (P02724 88-120 limits assumed) 1
# Method: For Förster resonance energy transfer (FRET) measurements, equal concentrations of FL- and TAMRA-labeled GpA TM domains were used. Concentrations of the peptide stock solutions were determined from absorbance measurements on a Perkin Elmer Lambda 35 UV/VIS spectrophotometer. In all experiments, we used 0.25 µM for each of the two labeled GpA peptides. Peptides dissolved in TFE and A8-35 dissolved in ethanol were mixed, and organic solvents were removed under a gentle stream of nitrogen gas. Residual solvent traces were removed by vacuum desiccation overnight. The dried peptide/polymer film was then hydrated in 10 mM HEPES buffer (pH 7.4) containing 150 mM NaCl.
# After at least 2 h of incubation at 37°C and 10 min of centrifugation at 16,000 g, steady-state fluorescence measurements were performed with the supernatant at 25°C on a Horiba Fluoromax 4 system with both excitation and emission slits at 3 nm. The excitation wavelength was set at 439 nm, and emission spectra were recorded from 480 to 650 nm. For FRET measurements with SDS, several concentrations of SDS, both below and above the CMC determined for the given buffer conditions, were used, and hydrated samples were incubated overnight.
# Energy transfer E was calculated using the donor fluorescence intensities at 525 nm in presence and absence of acceptor according to [drawing 1] (1)
# FD is the fluorescence intensity of the donor sample, and FDA is the fluorescence intensity of the sample containing donor and acceptor GpA TM domains at equal concentrations. The energy transfer of sequence-specific TM helix dimerization, ED, can be expressed as: [drawing 2] (2) where f D is the fraction of dimeric TM helices, P D is the probability of donor quenching when the peptides form a dimer, and E R is the energy transfer in the dimer.
# The probability P D of donor quenching depends on the molar ratio of the acceptor peptides [drawing 3] , where [a] and [d] are the concentrations of acceptor and donor peptides, respectively. If the distance of the fluorophores in the dimer is much smaller than the Förster radius, as is the case here, ER can be taken as unity.
# The fraction of dimers can be written as [drawing 4] , where [D] is the concentration of dimeric peptides and [T] the total peptide concentration.
# The dissociation constant, K D, is given by [drawing 6] (4) where the monomer concentration is [drawing 7] .
# This indicates a strong destabilization of the GpA dimer after addition of SDS, resulting in dissociation of GpA TM dimers in mixed A8-35/SDS aggregates. […]
# Figure 6 Dissociation of the GpA TM domain in APol upon addition of SDS. […] SDS was added to preformed APol/GpA complexes, and emission spectra were recorded at 25°C after incubation at 37°C. […]
# GpA TM dimer = conditions: SDS, DDMAB, DPC, lyso-PC, ref [26]-[28], cited from earlier work
smiles,measurement,setting,value
CC[C@H](C)[C@H](NC(=O)CNC(=O)[C@H](Cc1ccc(O)cc1)NC(=O)[C@H](CO)NC(=O)[C@@H](NC(=O)[C@H](CC(C)C)NC(=O)[C@H](CC(C)C)NC(=O)[C@@H](NC(=O)[C@@H](NC(=O)CNC(=O)[C@@H](NC(=O)[C@@H](NC(=O)CNC(=O)[C@H](C)NC(=O)[C@H](CCSC)NC(=O)[C@@H](NC(=O)CNC(=O)[C@H](Cc1ccccc1)NC(=O)[C@@H](NC(=O)[C@@H](NC(=O)[C@H](CC(C)C)NC(=O)[C@@H](NC(=O)[C@@H](NC(=O)[C@H](CCC(=O)O)NC(=O)[C@@H]1CCCN1C(=O)[C@H](CCC(=O)O)NC(=O)[C@@H](N)CO)[C@@H](C)CC)[C@@H](C)O)[C@@H](C)CC)[C@@H](C)CC)C(C)C)C(C)C)[C@@H](C)CC)[C@@H](C)O)[C@@H](C)CC)[C@@H](C)CC)C(=O)N[C@@H](CCCNC(=N)N)C(=O)N[C@@H](CCCNC(=N)N)C(=O)N[C@@H](CC(C)C)C(=O)N[C@H](C(=O)N[C@@H](CCCCN)C(=O)N[C@@H](CCCCN)C(=O)O)[C@@H](C)CC [GpA TM domain],complete unfolding of GpA dimer in APol/SDS mixed micelles,"human GpA TM domain; 20 µM A8-35 with SDS, analyzed concentration range, compared with DDM/SDS",not observed in case of APol/SDS mixed micelles
same,fraction of dimeric GpA,"human GpA TM domain; SDS exceeding 1.5 mM, 20 µM A8-35, 0.5 µM labeled GpA TM domain, 25°C, n = 3",about 0.3
same,increase in the dissociation constant upon SDS addition,"human GpA TM domain; no SDS vs SDS exceeding 1.5 mM, 20 µM A8-35, 0.5 µM labeled GpA TM domain, 25°C, n = 3",about one order of magnitude
same,fraction of dimeric GpA,"human GpA TM domain; no SDS, 20 µM A8-35, 0.5 µM labeled GpA TM domain, 25°C, n = 3",0.7
same,dissociation constants of the GpA TM dimer upon further addition of detergent,GpA TM dimer; compared to A8-35,increase significantly
same,Kd,"GpA TM dimer; read-out: dissociation constants of the GpA TM dimer in detergents, low detergent concentrations",≤ 0.5 µM
